From ChEMBL document CHEMBL1275532, “Potential for hepatitis C virus resistance to nitazoxanide or tizoxanide” (Antimicrob Agents Chemother, 2008) come the findings set out here.

In data set [1] the test system is Hepatitis C virus. The data set can be described thus: Antiviral activity against HCV genotype 1b obtained from TIZ-9 cells infected in Huh7.5 cell assessed as viral-induced colony formation efficiency at 10 uM after 10 to 14 days in presence of 125 ug/ml G418. It is filed as functional, Hepacivirus hominis.
The nature of data set [2]: Cytotoxicity against human TIZ-9 cell harboring HCV genotype 1b after 4 days by neutral red dye uptake assay. The note with it: TIZ-9 cells harboring HCV genotype 1b. It is filed as cell-based.
The test system of data set [3] is Hepatitis C virus. The data set can be described thus: Antiviral activity against HCV genotype 1b obtained from RP7 cells infected in Huh7.5 cell assessed as viral-induced colony formation efficiency at 10 uM after 10 to 14 days in presence of 125 ug/ml G418. It is filed as functional, Hepacivirus hominis.
The subject of data set [4] is Hepatitis C virus. In words: Antiviral activity against HCV genotype 1b in TIZ-9 replicon cell after 4 days by blot hybridization analysis. It is filed as functional, organism-based, Hepacivirus hominis. The conditions noted are these: TIZ-9, 96 h. (In antiviral work, replicon cells carry a viral genome segment that copies itself.)
A short description of data set [5]: Cytotoxicity against human RP7 cell harboring HCV genotype 1b after 4 days by neutral red dye uptake assay. It is filed as cell-based. The conditions noted are these: RP7 cells harboring HCV genotype 1b.
Data set [6] relates to Hepatitis C virus. In words: Antiviral activity against HCV genotype 1b obtained from NTZ-11 cells infected in Huh7.5 cell assessed as viral-induced colony formation efficiency at 10 uM after 10 to 14 days in presence of 125 ug/ml G418. It is filed as functional, Hepacivirus hominis.
Data set [7] is described as follows: Selectivity Index, ratio of CC50 for NTZ-11 cell harboring HCV genotype 1b to EC50 for HCV genotype 1b in NTZ-11 replicon cell.
Data set [8] deals with Hepatitis C virus. The data set can be described thus: Antiviral activity against HCV genotype 1b in NTZ-11 replicon cell after 4 days by blot hybridization analysis. It is filed as functional, organism-based, Hepacivirus hominis. The note with it: NTZ-11, 96 h.
Data set [9] can be described thus: Cytotoxicity against human NTZ-11 cell harboring HCV genotype 1b after 4 days by neutral red dye uptake assay. It is filed as cell-based. The note with it: NTZ-11 cells harboring HCV genotype 1b.
Data set [10] in a line: Selectivity Index, ratio of CC50 for TIZ-9 cell harboring HCV genotype 1b to EC50 for HCV genotype 1b in TIZ-9 replicon cell.
Data set [11] relates to Hepatitis C virus. The data set can be described thus: Antiviral activity against HCV genotype 1b in RP7 replicon cell after 4 days by blot hybridization analysis. The conditions noted are these: 96 h. It is filed as functional, organism-based, Hepacivirus hominis.
Data set [12] is described as follows: Selectivity Index, ratio of CC50 for RP7 cell harboring HCV genotype 1b to EC50 for HCV genotype 1b in RP7 replicon cell.
Data set [13] has as its system Hepatitis C virus. The data set can be described thus: Antiviral activity against HCV genotype 1a in replicon system. It is filed as functional, organism-based, Hepacivirus hominis. The note with it: subtype 1a.
The test system of data set [14] is Hepatitis C virus. In words: Antiviral activity against HCV genotype 1b obtained from RP7 cells infected in Huh7.5 cell assessed as viral-induced colony formation efficiency at 1 uM after 10 to 14 days in presence of 125 ug/ml G418. It is filed as functional, Hepacivirus hominis.
For data set [15], the system named is Hepatitis C virus. The data set can be described thus: Antiviral activity against HCV genotype 1b in replicon system. It is filed as functional, organism-based, Hepacivirus hominis.
The test system of data set [16] is Hepatitis C virus. In words: Antiviral activity against HCV genotype 1b obtained from TIZ-9 cells infected in Huh7.5 cell assessed as viral-induced colony formation efficiency at 1 uM after 10 to 14 days in presence of 125 ug/ml G418. It is filed as functional, Hepacivirus hominis.
In data set [17] the test system is Hepatitis C virus. In words: Antiviral activity against HCV genotype 1b obtained from NTZ-11 cells infected in Huh7.5 cell assessed as viral-induced colony formation efficiency at 1 uM after 10 to 14 days in presence of 125 ug/ml G418. It is filed as functional, Hepacivirus hominis.

Each structure is given as a SMILES string.

The term CC50 denotes the concentration that lowers cell viability or growth by half. By EC50 is commonly meant the midpoint of the concentration-response curve. A high value points to lower potency in that assay. The EC90 is the point of the concentration-response curve where the effect stands at 90%. A low value points to greater potency. With `C[C@@]1(O)[C@H](O)[C@@H](CO)O[C@H]1n1ccc(N)nc1=O`, the Activity in the data set on Hepatitis C virus [1] was 9%; in the data set on Hepatitis C virus [3], 10%; in the data set with Hepatitis C virus [6], 13%. The CC50 at 96 h in data set [2], in data set [5] and in data set [9] was over 300 µM throughout. Further, the figures for the EC50 in the data set with Hepatitis C virus [4], with Hepatitis C virus [8] and with Hepatitis C virus [11] were 2.2 µM, 1.9 µM and 2 µM, respectively. The 90% effect concentration (EC90) with Hepatitis C virus [4] turned out to be 8.9 µM; in the data set on Hepatitis C virus [8], 6.1 µM; in the data set on Hepatitis C virus [11], 9 µM. In addition, the “Ratio CC50/EC50” value was over 158 in [7], over 136 in data set [10] and over 150 in data set [12].
With `CC(=O)Oc1ccccc1C(=O)Nc1ncc([N+](=O)[O-])s1` [NITAZOXANIDE], the values for the CC50 at 96 h in data set [2], in data set [5] and in data set [9] were 97 µM, 38 µM and 68 µM, respectively. Also, the EC50 is 1.5 µM in the data set on Hepatitis C virus [4], 0.13 µM with Hepatitis C virus [13], 1.2 µM in the data set on Hepatitis C virus [8] and 0.16 µM in the data set with Hepatitis C virus [11]. Also, the results for the EC90 in the data set on Hepatitis C virus [4], with Hepatitis C virus [8] and in the data set on Hepatitis C virus [11] were 26 µM, 17 µM and 1.2 µM, respectively. The “Ratio CC50/EC50” value in data set [7] is 57; in data set [10], 65; in data set [12], 238.
Turning to `NC(=O)c1ncn([C@@H]2O[C@H](CO)[C@@H](O)[C@H]2O)n1` [RIBAVIRIN], the cytotoxic concentration (CC50) at 96 h is 95 µM in data set [2], 77 µM in data set [5] and 66 µM in data set [9]. Besides, the values for the EC50 with Hepatitis C virus [4], with Hepatitis C virus [8] and with Hepatitis C virus [11] were 52 µM, 47 µM and 69 µM, respectively. Moreover, the results for the EC90 in the data set on Hepatitis C virus [4], with Hepatitis C virus [8] and in the data set on Hepatitis C virus [11] were 123 µM, 107 µM and 122 µM, respectively. In addition, the “Ratio CC50/EC50” value is 1.4 in data set [7], 1.8 in [10] and 1.1 in data set [12].
As for `O=C(Nc1ncc([N+](=O)[O-])s1)c1ccccc1O` [TIZOXANIDE], the Activity in the data set on Hepatitis C virus [14] is recorded as 7%; in the data set with Hepatitis C virus [1], 0%; with Hepatitis C virus [3], 0%; in the data set on Hepatitis C virus [6] it was 0%; in the data set with Hepatitis C virus [16] it was 12%; with Hepatitis C virus [17], 8%. Also, the figures for the cytotoxic concentration (CC50) at 96 h in data set [2], in [5] and in data set [9] were 92 µM, 25 µM and 74 µM, respectively. The EC50 came out at 2 µM in the data set on Hepatitis C virus [4], 0.15 µM in the data set on Hepatitis C virus [15], 1.1 µM in the data set on Hepatitis C virus [8] and 0.15 µM in the data set with Hepatitis C virus [11]. Further, the EC90 is 35 µM with Hepatitis C virus [4], 18 µM in the data set with Hepatitis C virus [8] and 0.94 µM in the data set with Hepatitis C virus [11]. Also, the results for the “Ratio CC50/EC50” value in data set [7], in data set [10] and in data set [12] were 67, 46 and 167, respectively.
